Measurements reported in PMC6405172, “In vitro activity and mode of action of phenolic compounds on Leishmania donovani” (PLoS Neglected Tropical Diseases, 2019).
Where two headings read alike, the source gives them in different places.

Columns and labels:
[1] = Cytotoxicity of compounds on mammalian cells (MTT); assay type: cell-based; conditions: mouse, Raw 264.7 macrophage cells, Raw 264.7 cells, read-out: Macrophages CC50 (μM) ±SD
Method: Raw 264.7 cells were seeded into 96-well plates at (1 x 10^6 cells) in DMEM supplemented with 10% FBS, 100 μg/mL streptomycin, 100 u/mL penicillin-G, 2g/L NaHCO3 and incubated at 37°C for 24 hours in 5% CO2. The cells were treated with 0–50 μg/mL concentrations of the phenolic compounds for 48 hours at 37°C in 5% CO2. Deferoxamine and amphotericin B at 0–50 μg/mL concentrations were used as positive controls. Cell viability was estimated by measuring the mitochondria oxidative activity by MTT assay and absorbance was read at 570 nm using Thermo Scientific Varioskan LUX. Selectivity index (SI) was calculated as the ratio of the CC50 to IC50 values.

[2] = test system: Leishmania donovani intracellular amastigotes; assay: Intracellular amastigote assay in infected RAW 264.7 cells; assay type: cell-based; conditions: for Selectivity Index (CC50/IC50), amastigotes: CC50 Raw 264.7 / IC50 intracellular amastigotes; for IC50: intracellular amastigotes in RAW 264.7 cells, 48 hours, read-out: Amastigotes IC50 (μM) ± SD
Method: Amastigote cultures were prepared as reported by Jain and colleagues. Briefly, Raw 264.7 cells (4 x 10^7 cells) were seeded in 4 chamber slides and 1 x 10^7 cells in 96 well plates and incubated for 24 hours at 37°C in 5% CO2. The RAW 264.7 cells were infected with metacyclic promastigotes (1 x 10^8 cells) at an infection ratio of 1:10 macrophage: parasites and incubated for 24 hours at 37°C in 5% CO2. The overlying medium was removed, and the monolayer intracellular amastigotes were carefully washed four times with serum free M199 to remove free parasites. Freshly prepared M199 containing 10% FBS and the test compounds at concentrations ranging from 0–50 μg/mL were added to the infected cells and incubated for 48 hours at 37°C in 5% CO2. Triplicate incubations were performed in all the experiments. The chamber slides were washed thrice after incubation with M199 without FBS. The slides were then fixed in absolute methanol for 30 sec, rehydrated in 1x PBS for 5 min and stained with DAPI for 15 min. The slides were viewed by fluorescence microscopy and the number of infected macrophages counted using ImageJ Software to determine the infectivity index and IC50 values for amastigotes.
The infected RAW 264.7 cells in the 96 wells microtiter plates were also incubated for 48 hours and washed thrice as above. Sodium dodecyl sulfate (SDS) of concentration 0.05% was added to the wells for 30 sec for controlled lysis with M199 and 10% FBS. After the 30 sec, M199 with 10% FBS was added and the plates incubated at 25°C for 72 hours for the differentiation of the rescued amastigotes to promastigotes. Following incubation, the amastigotes were subjected to MTT assay and the absorbance obtained were used to estimate IC50 values of the compounds against the amastigote forms.

[3] = test system: Leishmania donovani promastigotes; assay: Parasite growth analysis (trypan blue counting); assay type: cell-based; conditions: IC50 concentrations; for decrease in the number of promastigotes: at 48 hours
Method: The dose dependent inhibition of phenolic compounds on promastigotes was determined by culturing promastigotes (2 x 10^5 cells) in freshly prepared M199 medium in the presence and absence of varying concentration of the test compounds, apigenin (IC50, 2x IC50, 4x IC50), rosmarinic acid (IC50, 2x IC50, 4x IC50), amphotericin B (1/2 IC50, IC50) and deferoxamine (IC50, 2x IC50, 4x IC50), for 120 hours. The number of parasites was determined by staining with trypan blue every 24 hours. Quantification of the viable parasites was determined by counting the parasites with the clear cytoplasm (non-stained) using a Neubauer hemocytometer with a cover slip. Three independent experiments were performed, and data expressed as mean ± standard deviation.

[4] = test system: L. donovani promastigotes; assay: Morphology analysis (DAPI, microscopy); assay type: cell-based, Leishmania donovani; conditions: 24 hours; for parasites with rounded morphology, aggregated kinetoplast and nuclear DNA: 2x IC50
Method: The cell pellets were then washed twice and resuspended in 1x PBS. The cells were then allowed to settle on poly-L-lysine coated slides and then rinsed with 1x PBS. Tris-HCl (100 mM) pH 7.5 in 1x PBS was used to block the PFA for 10 minutes. DAPI stain (0.1μg/mL) was added followed by one wash in 1x PBS. Coverslips were mounted onto the slides using Vectashield mounting media and observed under the Olympus fluorescent microscope to detect any phenotypic changes in L. donovani promastigotes. The total number of parasites was determined by direct counting of parasites per field, using ImageJ Software. The frequency of parasites was visually determined by counting parasites that had any abnormalities in their structure compared to the untreated control.

[5] = test system: L. donovani promastigotes; assay: Promastigote mitochondria integrity (MitoTracker Red CMXROS); assay type: cell-based, Leishmania donovani; conditions: 24 hours; 2x IC50 (amphotericin B 1/2 IC50)
Method: After incubation, the promastigotes were harvested and resuspended in serum-free M199/1%BSA. MitoTracker Red CMXROS (a cationic fluorescent dye that labels the mitochondria within live cells) at 100 nM was added and incubated for 30 min. Parasites were washed once with serum-free M199/1% BSA, pelleted by centrifugation at 1500 rpm for 10 min, resuspended in 1x vPBS and 6% paraformaldehyde and incubated at 4°C for 1 hour. The promastigote pellets were washed twice and resuspended in 1xPBS. The parasites were then allowed to settle on poly-L-lysine coated slides and DAPI stain (0.1μg/mL) was added followed by one wash in 1x PBS. Coverslips were mounted onto the slides using Vectashield mounting media and observed under the Olympus fluorescent microscope to detect any abnormalities in the structure of the mitochondria. The total number of parasites was determined by direct counting of parasites per field, using ImageJ Software. Parasites with distorted mitochondria were visually determined by counting parasites that had any abnormalities in the structure of the mitochondria compared to the untreated control.

[6] = test system: iron superoxide dismutase A (FeSOD); assay: RT-qPCR mRNA expression of FeSOD; assay type: cell-based, Leishmania donovani; conditions: promastigotes, 24 hours; for FeSOD Relative quantity: Fig 7B
Method: Promastigotes (1 x 10^7 cells) were separately treated with rosmarinic acid, apigenin, amphotericin B and deferoxamine, harvested after 24 hours incubation at 25°C. The parasites were then pelleted by centrifugation at 239 × g for 10 min and the pellet was re-suspended in 1 mL TRIzol. Samples were incubated overnight at -80°C and total RNA was extracted as described by the manufacturer’s protocol using Quick-RNA MiniPrep Plus (Zymo Research, USA). Purity of total RNA was determined to be approximately 2.0 using a Nanodrop. The oligonucleotide primers for the amplification of the iron dependent enzymes—ribonucleotide reductase (RNR) (3’[…] and 5’CAACAACTTCTGCGCATCG), iron superoxide dismutase A (FeSOD) (3’[…] and 5’[…]) and Leishmania iron transporter 1 (LIT1) (3’[…] and 5’ […]) were designed using sequences of Leishmania reference genome from tritrypdb.org (http://tritrypdb.org/tritrypdb/) and Primer 3 software. The oligonucleotide primers used in amplifying the housekeeping gene Histone 2A were (3’ […] and 5’[…]). The RT-qPCR reaction was conducted as described by manufacturer’s protocol with final concentrations of oligonucleotide primers as 0.4 μM, 1x Luna Universal One-Step Reaction mix, 1x Luna WarmStart RT Enzyme Mix and template RNA ≤ 1 μg. All the RT-PCR products were standardized with respect to the endogenous control, Histone 2A. The levels of the mRNA transcripts were obtained using the QuantStudio 5 Real-Time PCR System (Applied Biosystems). The data represent three independent experiments done in triplicate and a fold change in gene expression of >2 was considered significant.

SMILES	CC50 at 48 h [1]	Selectivity Index (CC50/IC50), amastigotes [2]	IC50 ([2]; Leishmania donovani, RAW264.7, 48 h)	IC50 [2]	reduction in the number of parasites ([3]; at 24 hours)	parasites showing irregular shape, severe distortion in the cell membrane, loss of kinetoplast DNA ([4]; half the IC50)	promastigotes with mitotracker dye accumulating in the cytoplasm (distorted mitochondrion) [5]	FeSOD mRNA expression versus untreated [6]	FeSOD Relative quantity [6]	IC50 ([2]; Leishmania donovani, RAW264.7)	decrease in the number of promastigotes [3]	parasites with rounded morphology, aggregated kinetoplast and nuclear DNA [4]
C[C@@H]1[C@H](O)[C@@H](C)/C=C/C=C/C=C/C=C/C=C/C=C/C=C/[C@H](O[C@@H]2O[C@H](C)[C@@H](O)[C@H](N)[C@@H]2O)C[C@@H]2O[C@](O)(C[C@@H](O)C[C@@H](O)[C@H](O)CC[C@@H](O)C[C@@H](O)CC(=O)O[C@H]1C)C[C@H](O)[C@H]2C(=O)O [Amphotericin B, reference compound]	15.75 ± 0.03 µM	2.40	6.491 ± 0.03 µM	6.49 ± 0.03 µM	90%	90%	99%	did not significantly change	0.7	–	–	–
O=c1cc(-c2ccc(O)cc2)oc2cc(O)cc(O)c12 [Apigenin, apigenin]	237.9 ± 0.03 µM	5.21	–	–	–	–	75.8%	did not significantly change	0.7	45.66 ± 0.01 µM	50%	–
CC(=O)N(O)CCCCCNC(=O)CCC(=O)N(O)CCCCCNC(=O)CCC(=O)N(O)CCCCCN [Deferoxamine, deferoxamine, reference compound]	26.88 ± 0.02 µM	0.73	–	–	–	–	81%	5 fold	5.0	36.74 ± 0.01 µM	50%	90%
O=C(/C=C/c1ccc(O)c(O)c1)O[C@H](Cc1ccc(O)c(O)c1)C(=O)O [Rosmarinic acid, rosmarinic acid]	245.6 ± 0.3 µM	12.70	–	–	–	–	70%	did not significantly change	1.3	19.21 ± 0.01 µM	50%	70%
